In patent publication US20100041632A1, “USES OF THE CARBOXY-AMIDO-TRIAZOLE COMPOUNDS AND SALTS THEREOF” (priority 2006, published 2010):

Assays:
TNF-α = TNF-α levels in paw tissue and serum of adjuvant arthritis rat (ELISA); assay type: in vivo; details: administered in combination with CAI
Protocol: (§1) Blood was collected from eve socket on day 29 and left in room temperature to allow coagulating. Then serum was separated by centrifugation at 3000 rpm for 10 min and kept in −20° C. After animals were sacrificed, the subcutaneous tissue of the right hind paw and that surrounding the tarsotibial joints was removed, broke into pieces, and placed in 5 ml normal saline (0.9%). The tissues were homogenized in a high speed homogenizer. Then the homogenate was centrifuged at 4° C. and 10,000 rpm for 15 min. The supernatants were collected and stored at −20° C. until further analysis.
(§2) IL-1β and TNF-α levels in paw tissue and serum were measured using specific rat ELISA kits according to the manufacturer's instructions.

IL-1β = IL-1β levels in paw tissue and serum of adjuvant arthritis rat (ELISA); assay type: in vivo; details: administered in combination with CAI
Protocol: as §1, with “The adjuvant arthritis rat was prepared as described in example 8. Treatment was performed as described in example 8. Blood” for “Blood”
as §2

Kunming mice [1] = experiment: Radiant heat test (tail-flick); assay type: in vivo
Protocol: The radiant heat dolorimeter (Collumbus Instruments) is used in this model with the tail-flick mode and the exposure rate of 20. The latency periods (TFL) starting from the beginning of exposure to the tail-flick responses were recorded as the pain threshold. The exposure time lasted for 16 seconds.
Kunming mice (18-22 g, male) are tested for the basic pain threshold before the test with drug administration, and those with pain threshold longer than 16 seconds are excluded. The selected mice are divided into 4 groups with 15 animals per group.
(§3) Control group with dissolvent: 10 μl PEG400 was administered (ig) twice with the interval of 24 hours. The pain intensity test was carried out 8 hours after the second administration. 200 μl N.S. was injected (sc) 5 minutes before the test.
(§4) Morphine/PEG400 group: 10 μl PEG400 was administered (ig) twice with the interval of 24 hours. The pain intensity test was carried out 8 hours after the second administration. Morphine (2 mg/kg body weight) was injected (sc) 5 minutes before the test.
(§5) CAI/N.S. group: CAI (20 mg/kg body weight, 2 mg/ml) was administered (ig) twice with the interval of 24 hours. The pain intensity test was carried out 8 hours after the second administration. 200 μl N.S. was injected (sc) 5 minutes before the test.
The pain intensity test was carried out 8 hours after the second administration, morphine (2 mg/kg body weight) was injected (sc) 5 minutes before the test.
The pain threshold of each mouse was tested before and after morphine or N.S. injection. The values after drug administration minus those before drug administration were considered to be the changing index of pain threshold.

Kunming mice [2] = experiment: Effect of CAI on drug addiction caused by morphine (naloxone-induced jumping)
Protocol: 160 Kunming mice (18-22 g, half male and half female) were divided into 4 groups randomly, with 40 mice per group:
Control group with solvent, PEG400/N.S. (10 μl/g/day PEG400, (ig), 4 days);
Group treated with CAI, CAI/N.S. (CAI is resolved in PEG400 to reach a final concentration of […], 20 mg CAI/kg/day was administered (ig) for 4 days, N.S. was taken according to morphine administration in table 1);
Group treated with morphine, PEG400/morphine (10 μl/g/day PEG400 was administered (ig) for 4 days, morphine was administered according to the table below);
4 hours after the morphine administration on the fifth day, animals of each group was injected (ip) with 1 mg/kg naloxone and then put into a tank (5000 ml) immediately. The jump frequency in 30 minutes was recorded. Two-factor analysis of variance by SPSS was performed to analyse the experiment results.

Kunming mice [3] = experiment: Hot plate test (analgesic effect); assay type: in vivo
Protocol: Kunming mice (18-22 g, female) were randomly divided into 4 groups with 20 animals per group.
as §3, §4, §5
(§6) The pain intensity test was carried out 8 hours after the second administration. Morphine (2 mg/kg body weight) was injected (sc) 5 minutes before the test.
The mice were placed onto a hot plate (53±0.5° C.) and the latency periods (second) of hopping responses were recorded as the pain threshold index.

Kunming mice [4] = experiment: Formalin test (analgesic effect); assay type: in vivo
Protocol: 320 Kunming mice (18-22 g, half male and half female) were divided into 4 groups randomly with 80 animals in each group.
Control group with dissolvent (PEG400/N.S.): 10 μl PEG400 was administered (ig) twice with the interval of 24 hours. The pain intensity test was carried out 8 hours after the second administration. 200 μl N.S. is injected (sc) 5 minutes before the test.
as §4, §5, §6
5 minutes after the morphine or N.S. injection, 20 μl 2% formalin was injected (sc) into the subplantar space of the hind paw. The animals were placed immediately in a glass cylinder hanging on a holder, with a mirror placed below with 30° slope to observe the paw responses. The pain responses of the animals with injected paws were recorded; a pain ranking was recorded as follows: 3=the injected paw is licked, bitten, or shaken; 2=the injected paw is elevated and is not in contact with any other surface; 1=the injected paw has little or no weight on it; 0=the injected paw is not favored. The duration of each of the 4 behavioral categories was recorded. The observation lasted for 15 minutes. A pain intensity score was calculated by multiplying the amount of time spent in each category by its assigned category score and adding these products together.

rats = experiment: Granulomatous tissue formation (implanted tampon); assay type: in vivo; details: 7 days; CAI 20 mg/kg/day p.o.; dexamethasone 0.067 mg/kg/day i.p.
Protocol: 44 rats (160 g) were randomly divided into 4 groups (11 rats/group). Animals were slightly anaesthetized by ether. After sterilization, the groin was cut bilaterally. A sterile tampon (50 mg) was implanted (sc). On the same day, the following treatments were administered: N.S. (i.p., control group), 0.067 mg/kg/day dexamethasone (i.p., positive control), 20 mg/kg/day CAI (p.o., dissolved in PEG 400, test group) and 0.067 mg/kg/day dexamethasone+20 mg/kg/day CAI (p.o., dissolved in PEG 400, combination group). After 7 days administration, the animals were sacrificed. The cotton was removed. The granulomatous tissue was dried at 60° C. oven for 12 hr and weighed. Increment in the dry weight of the tissue was taken as measure of granuloma formation. The Increment was adjusted for respective body weight, and the mean value for each group was calculated.

Wistar rats = experiment: Adjuvant induced arthritis (AA) of rat, paw oedema; assay type: in vivo
Protocol: Negative control (AA+NS): […] positive control (AA+Dex): dexamethasone, i.p., 0.067 mg/kg/day. Vehicle control (AA+PEG400): […] CAI (AA+CAI): 20 mg/ml CAI, ig, 0.1 ml/100 g/day (20 mg/kg/day). Combination (AA+CAI+Dex): dexamethasone, 0.067 mg/kg/day (i.p.) plus CAI 20 mg/kg/day (p.o.). Normal volumes of left and right hind paw were measured before adjuvant injection. […]

Kunming mice [5] = experiment: Croton oil-induced ear edema mouse model; assay type: in vivo; details: ear weight difference 4 hours after 2% croton oil; CAI/analogs 2 mg/ml ig, dexamethasone 0.2 mg/ml ip, 0.1 ml/10 g/day, 3 days
Protocol: Male Kunming mice, weighted 18-22 g, were randomly divided to the following experiment groups, 20 mice/group:
Negative control: normal saline was injected (ig), 0.1 ml/10 g/day for 3 consecutive days.
Vehicle control: PEG400 was injected (ig), […] for 3 consecutive days.
Positive control: Dexamethasone (0.2 mg/ml) was injected (ip), 0.1 ml/10 g/day for 3 consecutive days.
Test group: CAI or its analogs (2 mg/ml, analogs are as described in example 5) was administered (ig), 0.1 ml/10 g/day for 3 consecutive days.
8 hours after the last administration, 20 μl of croton oil solution (2%) was applied to the right ear of each mouse. The left ear remained untreated as control. The animals were sacrificed 4 hours later, and a piece of tissue was punched from the same position of the treated and untreated ear. The tissues were weighed on a 0.1 mg balance. The difference in weight between the two pieces of tissue of each mouse was taken as a measure of swelling intensity.

Compound: CC(=O)O.NC(=O)c1nnn(Cc2cc(Cl)c(C(=O)c3ccc(Cl)cc3)c(Cl)c2)c1N [CAI acetate]
- Inhibitory effect on serum levels of TNF-α (in words) (TNF-α): obvious and even more pronounced
- Inhibitory effect on serum levels of IL-1β (in words) (IL-1β): obvious and even more pronounced

Compound: CN1CC[C@]23c4c5ccc(O)c4O[C@H]2[C@@H](O)C=C[C@H]3[C@H]1C5 [morphine, reference compound]
- Analgesic effect in radiant heat test (in words) (Kunming mice [1]; compared with the control group): extended the pain threshold time very significantly
- Pain threshold change (seconds, mean ± std) (Kunming mice [1]; tail-flick latency after minus before drug, CAI 20 mg/kg ig twice, morphine 2 mg/kg sc): 6.95 ± 5.69 s
- Mean number of jump (Kunming mice [2]; jump frequency in 30 minutes after naloxone 1 mg/kg ip, CAI 20 mg/kg/day ig 4 days, morphine per Table 1, mean ± std): 41 ± 58
- Addiction / withdrawal syndrome (in words) (Kunming mice [2]; naloxone-induced jumping, two-factor ANOVA vs PEG400/N.S.): causes obvious withdrawal syndrome
- Pain threshold (sec, mean ± std) (Kunming mice [3]; hot plate 53±0.5° C., latency of hopping response, CAI 20 mg/kg ig twice, morphine 2 mg/kg sc): 31.9 ± 12.1 s
- Analgesic effect in hot plate test (in words) (Kunming mice [3]; two-factor ANOVA): extends the pain response time very significantly
- Pain intensity score (mean ± std) (Kunming mice [4]; 2% formalin sc hind paw, 15 minutes observation, CAI 20 mg/kg ig twice, morphine 2 mg/kg sc): 756 ± 441
- Analgesic effect in formalin test (in words) (Kunming mice [4]; pain scores compared with the control group): decrease significantly

Compound: C[C@@H]1C[C@H]2[C@@H]3CCC4=CC(=O)C=C[C@]4(C)[C@@]3(F)[C@@H](O)C[C@]2(C)[C@@]1(O)C(=O)CO [dexamethasone, reference compound]
- granulomatous tissue:bady weight ratio (mean ± std) (rats): 0.064 ± 0.00495
- Primary paw oedema (%), mean ± std (Wistar rats; 1 d, CAI 20 mg/kg/day ig, Dex 0.067 mg/kg/day i.p.): 111.3 ± 13.6 %
- Primary paw oedema (%), mean ± std (Wistar rats; 2 d): 121.9 ± 16.0 %
- Primary paw oedema (%), mean ± std (Wistar rats; 5 d): 107.4 ± 12.5 %
- Primary paw oedema (%), mean ± std (Wistar rats; 8 d): 103.6 ± 14.0 %
- Primary paw oedema (%), mean ± std (Wistar rats; 11 d): 100.3 ± 21.0 %
- Primary paw oedema (%), mean ± std (Wistar rats; 14 d): 100.0 ± 11.3 %
- Secondary paw oedema (%), mean ± std (Wistar rats; 14 d, right hind paw): 1.1 ± 1.0 %
- Primary paw oedema (%), mean ± std (Wistar rats; 17 d): 95.3 ± 15.7 %
- Secondary paw oedema (%), mean ± std (Wistar rats; 17 d): 1.9 ± 1.4 %
- Primary paw oedema (%), mean ± std (Wistar rats; 20 d): 83.9 ± 24.0 %
- Secondary paw oedema (%), mean ± std (Wistar rats; 20 d): 2.8 ± 0.9 %
- Primary paw oedema (%), mean ± std (Wistar rats; 23 d): 80.4 ± 17.8 %
- Secondary paw oedema (%), mean ± std (Wistar rats; 23 d): 4.6 ± 1.4 %
- Primary paw oedema (%), mean ± std (Wistar rats; 26 d): 78.6 ± 23.1 %
- Secondary paw oedema (%), mean ± std (Wistar rats; 26 d): 3.6 ± 1.7 %
- Primary paw oedema (%), mean ± std (Wistar rats; 29 d): 73.9 ± 18.0 %
- Secondary paw oedema (%), mean ± std (Wistar rats; 29 d): 2.5 ± 1.7 %
- Swelling intensity (mg) mean ± std (Kunming mice [5]): 1.5 ± 0.4 mg

Compound: Cl.NC(=O)c1nnn(Cc2cc(Cl)c(C(=O)c3ccc(Cl)cc3)c(Cl)c2)c1N [CAI hydrochlorate]
- Inhibitory effect on serum levels of TNF-α (in words) (TNF-α): obvious and even more pronounced
- Inhibitory effect on serum levels of IL-1β (in words) (IL-1β): obvious and even more pronounced
